Measured values published in the NIST ThermoML archive (doi:10.1016/j.tca.2005.08.012).

Columns and labels:
[1] = 101.33 kPa, Liquid, Vibrating tube method
[2] = xn = mol fraction of the nth substance listed; settings: 101 kPa, Liquid, Vibrating tube method

CCCCN [1-butanamine]
[1]
Settings	mass density [kg/m3]
303.15 K	728.65
313.15 K	719.17

CCCCN [1-butanamine] + C1CCCCC1
mass density [kg/m3], [2]
Settings	x1 = 0.0097	x1 = 0.0197	x1 = 0.0282	x1 = 0.038	x1 = 0.0471	x1 = 0.0581	x1 = 0.0674	x1 = 0.0724	x1 = 0.0873
303.15 K	768.39	767.7	767.1	766.38	765.76	764.98	764.35	764.08	763.14
313.15 K	758.82	758.12	757.54	756.91	756.3	755.61	754.91	754.62	753.62

CCCCN [1-butanamine] + c1ccccc1
mass density [kg/m3], [2]
Settings	x1 = 0.0094	x1 = 0.0195	x1 = 0.0284	x1 = 0.038	x1 = 0.048	x1 = 0.0588	x1 = 0.0669	x1 = 0.0764	x1 = 0.0859
303.15 K	866.8	865.19	863.77	862.3	860.74	859.06	857.8	856.32	854.84
313.15 K	856.12	854.55	853.17	851.7	850.16	848.5	847.27	845.82	844.4

c1ccccc1 [benzene]
[1]
Settings	mass density [kg/m3]
303.15 K	868.3
313.15 K	857.59

C1CCCCC1 [cyclohexane]
[1]
Settings	mass density [kg/m3]
303.15 K	769.1
313.15 K	759.52

CCCCNCCCC [dibutylamine]
[1]
Settings	mass density [kg/m3]
303.15 K	752.28
313.15 K	743.44

CCCCNCCCC [dibutylamine] + C1CCCCC1
mass density [kg/m3], [2]
Settings	x1 = 0.0109	x1 = 0.0204	x1 = 0.0298	x1 = 0.0392	x1 = 0.0493	x1 = 0.0583	x1 = 0.0689	x1 = 0.0797	x1 = 0.0881
303.15 K	768.53	768.07	767.62	767.24	766.84	766.46	766.05	765.6	765.27
313.15 K	759.01	758.59	758.19	757.79	757.36	756.99	756.55	756.11	755.77

CCCCNCCCC [dibutylamine] + c1ccccc1
mass density [kg/m3], [2]
Settings	x1 = 0.0108	x1 = 0.0201	x1 = 0.03	x1 = 0.039	x1 = 0.0487	x1 = 0.0593	x1 = 0.0689	x1 = 0.0797	x1 = 0.0892
303.15 K	865.75	863.58	861.33	859.32	857.18	854.88	852.86	850.62	848.69
313.15 K	855.17	853.13	851	849.09	847.05	844.85	842.92	840.79	838.92

CCCNCCC [dipropylamine]
[1]
Settings	mass density [kg/m3]
303.15 K	731.21
313.15 K	726.15

CCCNCCC [dipropylamine] + C1CCCCC1
mass density [kg/m3], [2]
Settings	x1 = 0.0114	x1 = 0.0213	x1 = 0.0321	x1 = 0.0414	x1 = 0.0509	x1 = 0.0622	x1 = 0.0727	x1 = 0.0811	x1 = 0.0919
303.15 K	768.31	767.65	766.94	766.29	765.71	764.96	764.29	763.78	763.13
313.15 K	758.72	758.03	757.3	756.67	756.07	755.34	754.66	754.17	753.52

CCCNCCC [dipropylamine] + c1ccccc1
mass density [kg/m3], [2]
Settings	x1 = 0.0105	x1 = 0.0207	x1 = 0.0306	x1 = 0.039	x1 = 0.0508	x1 = 0.0614	x1 = 0.0723	x1 = 0.0812	x1 = 0.0917
303.15 K	865.97	863.74	861.67	859.91	857.5	855.36	853.17	851.42	849.36
313.15 K	855.38	853.26	851.24	849.55	847.19	845.11	843	841.29	839.28

CCCN [propan-1-amine]
[1]
Settings	mass density [kg/m3]
303.15 K	706.1
313.15 K	696.04

CCCN [propan-1-amine] + C1CCCCC1
mass density [kg/m3], [2]
Settings	x1 = 0.0076	x1 = 0.0169	x1 = 0.0282	x1 = 0.0365	x1 = 0.0483	x1 = 0.057	x1 = 0.0652	x1 = 0.0747	x1 = 0.0859
303.15 K	768.47	767.75	766.86	766.22	765.3	764.61	763.97	763.25	762.47
313.15 K	758.92	758.21	757.38	756.8	755.92	755.27	754.68	753.96	753.15
